The compounds below were run on NCI-H358 (assay: CellTiter-Glo cell proliferation inhibition, NCI-H358). Conditions: Homo sapiens; NCI-H358 (lung cancer cell line), 2D, 72 hours; read-out: Example IC50 (µM) NCI-H358(2D).
Assay type: cell-based
Text: This experiment used the CellTiter-Glo® Luminescent Cell Viability Assay kit from Promega to evaluate the inhibitory activity of the disclosed compounds on the proliferation of the following cell lines: 4T1 (mouse breast cancer cell line), A20 (mouse B-cell lymphoma cell line), A2780 (human ovarian cancer cell line), AsPC-1 (pancreatic cancer cell line), B16F10 (mouse melanoma cell line), BT549 (human breast cancer cell line), CT26 (mouse colon cancer cell line), EMT6 (mouse breast cancer cell line), HCT116 (colorectal cancer cell line), Jurket (acute leukemia cell line), KP-4 (pancreatic cancer cell line), LL/2 (mouse lung cancer cell line), MCF7 (breast cancer cell line), […] NCI-H358 (lung cancer cell line), NCI-H727 (gastric cancer cell line), NCI-1944 (lung cancer cell line), Pan 04.03 (pancreatic cancer cell line), SK-BR-3 (breast cancer cell line), THP-1 (leukemia cell line), TOV21G (ovarian cancer cell line), U87MG (glioblastoma cell line), and UM-UC-a (bladder cancer cell line).
All cell lines were purchased from Nanjing Kebai Biotechnology Co., Ltd. The following materials were also used in the experiment: RPMI-1640 media (HyClone, catalog number #SH30022.01), McCoy's 5A media (Thermo Fisher, catalog number #16600-082), MCDB 105 media (Sigma, catalog number #117-500), Medium 199 (Thermo Fisher, catalog number #11150-059), MEM media (Thermo Fisher, catalog number #11095-080), DMEM media (HyClone, catalog number #SH30027.01), fetal bovine serum (FBS) (ExCell, catalog number # M4530), Sodium Pyruvate (100Mm) (Thermo Fisher, catalog number #11360-070), and MEM NEAA (100X) (Thermo Fisher). […]
Cells were cultured according to the instructions provided by the cell supplier (Nanjing Kebai Biotechnology Co., Ltd.). […] Suspension or adherent cells were collected, and cell viability was determined using the trypan blue exclusion method, ensuring that cell viability was above 90%. […]
An IC50 of 0.074 µM was found for `O=C(Nc1ccc(-c2csc(CO)c2)cc1)C(=O)Nc1ccc(-c2cc3cc(F)c(-c4nnn[nH]4)cc3n2C2CCC2)cc1` [Example 1] in this work.
An IC50 of 0.072 µM was found for `CC1(n2c(-c3ccc(NC(=O)C(=O)Nc4ccc(N5CCC6(CCOC6)CC5)cc4)cc3)cc3cc(F)c(-c4nnn[nH]4)cc32)CCC1` [Example 68] in this work.
An IC50 of 0.063 µM was found for `O=C(Nc1ccc(-c2cc3cc(F)c(-c4nnn[nH]4)cc3n2C2CCC2)cc1)C(=O)Nc1ccc(N2CCC3(CCC(O)C3)CC2)cc1` (stereo not drawn) [Example 100] in this work.

— patent publication EP4741383A1, “COMPOUND AND USE THEREOF AS ANTI-CANCER DRUG” (Tyligand Bioscience (Shanghai) Limited, priority 2023, dated 2025)
